The values below come from patent US20050043363A1, “Efficient microbial preparation of capravirine metabolites M4 and M5” (AGOURON PHARMACEUTICALS, INC., priority 2003, published 2005).

The test system of one series is HIV. The series is described as follows: Antiviral activity determined measuring XTT dye reduction. Particulars: for EC50 / EC90: Human immunodeficiency virus 1, antiviral activity, XTT dye reduction, mean of 2-4 experiments (M4, M5) or 9 experiments (CPV). The format is cell-based. From the text: The term “EC50”, as used herein, means the statistically derived concentration of a toxicant that can be expected to cause a defined non-lethal effect in 50% of a given population of organisms under defined conditions.
The term “EC90”, as used herein, means the statistically derived concentration of a toxicant that can be expected to cause a defined non-lethal effect in 90% of a given population of organisms under defined conditions.
In general terms: Tetrazolium assays rely on reduction of a dye to a coloured formazan, in cell work by metabolically active cells.

Series [1] is described as follows: Cytotoxicity determined measuring XTT dye reduction. The format is cell-based. Particulars: compound-treated cells, 50% cytotoxicity concentration, uninfected cells. How it is done:
The term “CC50”, as used herein, means the 50% cytotoxicity concentration, which is calculated as the concentration of compound that decreases the viability of uninfected, compound-treated cells to 50% of that of uninfected, compound-free cells.

Broadly, the EC50 is the concentration needed to bring the measured effect to its halfway point. High values mean weaker potency, low ones greater potency. The term EC90 denotes the concentration needed for an effect of 90%. Read a high EC90 as a need for much substance. Broadly, the CC50 is the concentration giving 50% cytotoxicity. A low value points to harm at low concentration. For `CC(C)c1nc(COC(N)=O)n(Cc2ccncc2)c1Sc1cc(Cl)cc(Cl)c1` [CPV, 2-carbamoyloxymethyl-5-(3,5-dichlorophenyl)thio-4-isopropyl-1-(4-pyridyl)methyl-1H-imidazole, reference compound], in the series with HIV, the “TI (Therapeutic index = CC50/EC50)” value was 45,667, a half-maximal response (EC50) required 1.5 nM and the EC90 was 3.2 nM. The midpoint of cytotoxicity in series [1], the CC50, lay at 69000 nM.
With `CC(CO)c1nc(COC(N)=O)n(Cc2ccncc2)c1Sc1cc(Cl)cc(Cl)c1` (stereo not drawn) [M5], in the series on HIV, the “TI (Therapeutic index = CC50/EC50)” value was >6,882, a half-maximal response (EC50) required 47 nM and the 90% effect concentration (EC90) is 110 nM. In series [1], this molecule yielded a CC50 greater than 320000 nM.
On the same counts, the results for `CC(C)(O)c1nc(COC(N)=O)n(Cc2ccncc2)c1Sc1cc(Cl)cc(Cl)c1` [M4] are >6,737, 48 nM, 110 nM and greater than 320000 nM.
